Data set [1] can be described thus: Stability of the analytes in rat plasma samples under storage conditions. Type of data set: physicochemical. The note with it: n = 6. As to the method: The bioanalytical method validation was evaluated for specificity, linearity, sensitivity, precision and accuracy, recovery, matrix effect, and stability to ensure compliance with the U.S. Food and Drug Administration (FDA) guidance on precise quantitative analysis ([Center for Drug Evaluation and Research of the U.S., 2018]). The assessment of specificity was conducted by comparing the chromatograms obtained from blank plasma, blank plasma spiked with the target components, and samples gathered following the oral administration of OS extract. Calibration curves were constructed by plotting the ratio for the peak area of the analyte to IS versus the concentration, with 1/x^2 serving as the weighting factor. The lower limit of quantification (LLOQ) was defined as the concentration at which a signal to noise ratio of […] 10 was achievable. The evaluation of precision and accuracy involved the analysis of six QC samples, both within a single day and over 3 consecutive days. Accuracy was expressed as the relative error (RE), whereas precision was gauged via relative standard deviation (RSD). Extraction recovery was ascertained by juxtaposing the responses of analytes in extracted samples against those in samples that were spiked post-extraction. The matrix effect was scrutinized by determining the ratio of the responses of the analytes in post-extraction spiked samples to those in the mixed standard solution. The stability of the analytes in plasma samples was explored under diverse conditions: encompassing a 12-h period in an autosampler, a 4-h interval at room temperature, three cycles of freezing–thawing, and a 7-day duration at −80 °C.
The retention times of the analyte peaks were consistent with those in the spiked samples. […] The LLOQs for chrysin, chrysin-7-O-β-D-glucuronide, hispidulin, wogonoside, quercetin, quercetin-7-O-β-D-glucoside, baicalin, baicalein, acacetin, oroxin A, oroxin B, oroxylin A, oroxylin A-7-O-β-D-glucuronide, apigenin, and scutellarein were 1.0, 2.0, 1.0, 0.3, 1.0, 0.1, 9.0, 6.0, 0.3, 6.0, 4.0, 1.0, 2.0, 0.5, and 0.3 ng/mL, respectively. In Supplementary Table S2, the RE for accuracy is between −13.77% and 12.55%, and the RSD for precision is below 14.55% (both intra- and inter-day). […] The matrix effect varied from 60.15% to 115.53%, with RSD values below 10.54%. In Supplementary Table S4, the RSD values for stability of the analytes are found to be lower than 13.98%, meaning that these components were stable under the following conditions: encompassing a 12-h period in an autosampler, a 4-h interval at room temperature, three cycles of freezing and thawing, and a 7-day duration at −80 °C.

Data set [2] in a line: Pharmacokinetic study in rats after oral administration of OS extract (UHPLC-QqQ-MS/MS of plasma). The conditions noted are these: for concentration at 0.5 h: SD, 3 g/kg, rat plasma collected 0.5 h after oral administration of the OS extract, read-out: Concentration printed in MRM chromatogram of plasma sample (Figure 2C); for AUC(0-t) / AUC(0-inf) / Cmax / half-life / Tmax: rat plasma, oral 3 g/kg OS extract, n = 6, mean ± SD; for AUC(0-inf): read-out: AUC(0-∞); for Cmax: read-out: Cmax; for half-life: read-out: T1/2 (converted); for Tmax: read-out: Tmax. Type of data set: in vivo, rat. As to the method:
The UHPLC-QqQ-MS/MS system consisted of a 1290 UHPLC and a 6470 mass spectrometer (Agilent Technologies). Chromatographic separation was realized on utilizing an ACQUITY UPLC BEH C18 column (2.1 × 100 mm, 1.7 μm) maintained at 35 °C. The mobile phase consisting of 0.1% formic acid in water (A) and acetonitrile (B) was utilized with the elution program set at 0 min–1 min, 5% B–30% B; 1 min–4 min, 30% B– 50% B; 4 min–8 min, and 50% B–90% B. The injection volume was 5 μL, and the flow rate was 0.3 mL/min. The mass spectrometry parameters in the negative ion mode, gas temperature, flow rate, and nebulizer pressure were 300 °C, 7 L/min, and 35 psi, respectively. The mass spectra properties of the 15 analytes and the IS are illustrated in Table 1.
To 100 μL of the plasma sample, 20 μL of methanol, 20 μL of IS solution (methylparaben, 1 μg/mL), and 5 μL of formic acid were added and vortexed for a duration of 2 min. Subsequently, the mixture underwent extraction with 800 μL of acetonitrile for 3 min. Following 10 min of centrifugation at 12,000 g, the supernatant was collected and evaporated to dryness under N2 to obtain the residue. Finally, the residue was reconstituted in 50% methanol (100 μL) and utilized for analysis.
Before initiating the study, six male SD rats underwent a 12-h fasting period, during which they were granted unrestricted access to water. Then, the rats were administered an oral dose of 3 g/kg of the OS extract, which had been dissolved in 0.5% CMC-Na aqueous solution. Blood samples, approximately 200 μL each, were collected at various time points: before administration and at 0.03, 0.08, 0.17, 0.25, 0.5, 0.75, 1, 2, 4, 6, 8, 10, 12, 24, 36, and 48 h post-administration. Following 10 min of centrifugation at 6,000 g, the resultant samples were stored at −80 °C.
The developed method was effectively applied to study the pharmacokinetics in rats following oral administration of the OS extract. […] This was likely due to their low concentrations in the OS extract. Ultimately, nine components (chrysin, chrysin-7-O-β-D-glucuronide, baicalin, baicalein, oroxin A, oroxin B, oroxylin A, oroxylin A-7-O-β-D-glucuronide, and scutellarein) were successfully fitted with pharmacokinetic parameters. The average plasma concentration–time profiles of these substances are depicted in Figure 3. […] All data were presented as the mean ± standard deviation (Mean ± SD).

Setting [3] is: spiked concentration 2000 ng/mL.
The mark [4] stands for this setting: spiked concentration 32000 ng/mL.
Where [5] appears, read: rat plasma after oral OS extract.
Where [6] appears, read: spiked concentration 6400 ng/mL.

Data on five molecules can be found in PMC12589998, “Development and validation of a UHPLC-QqQ-MS/MS method for simultaneous determination of fifteen major components from Oroxyli seed extract in rat plasma and its application in the pharmacokinetic study” (Frontiers in Pharmacology, 2025).

The AUC(0-t) is the area under the concentration-time curve up to a stated or last time point. By Cmax is commonly meant the highest concentration seen after dosing. One may read the Tmax as the time at which the peak concentration occurs.

“Also recorded” adds a separate entry of the source. Read-outs that look alike come from different tables or passages of the source.

On to `O=C(O)[C@H]1O[C@@H](Oc2cc3oc(-c4ccccc4)cc(=O)c3c(O)c2O)[C@H](O)[C@@H](O)[C@@H]1O` [Baicalin, baicalin], for which, in data set [1] (spiked concentration 200 ng/mL), the “Measured, -80°C for 7 days” value worked out at 196.55 ± 6.22 ng/mL; the “Measured, Autosampler for 12 h” value is 197.37 ± 12.83 ng/mL; the “Measured, Room temperature for 4 h” value was found to be 197.18 ± 11.27 ng/mL; the “Measured, Three freeze-thaw cycles” value stood at 191.59 ± 7.20 ng/mL. In addition, in data set [1] (setting [3]), the “Measured, -80°C for 7 days” value is reported as 2100.51 ± 51.69 ng/mL; the “Measured, Autosampler for 12 h” value was 1919.30 ± 46.13 ng/mL; the “Measured, Room temperature for 4 h” value is on record as 2105.21 ± 73.11 ng/mL; the “Measured, Three freeze-thaw cycles” value came to 1965.30 ± 64.97 ng/mL. Further, in data set [1] (setting [4]), the “Measured, -80°C for 7 days” value is 34521.83 ± 3366.83 ng/mL; the “Measured, Autosampler for 12 h” value is recorded as 31375.83 ± 425.60 ng/mL; the “Measured, Room temperature for 4 h” value is reported as 30814.68 ± 1603.40 ng/mL; the “Measured, Three freeze-thaw cycles” value was 32953.20 ± 2649.23 ng/mL. Also, in data set [2] (male), the concentration at 0.5 h turned out to be 10400 ng/mL, the AUC(0-inf) was 264000 ng·h/mL, the Cmax was determined as 13400 ng/mL and the half-life was 9.14 ± 1.15 h. Moreover, in data set [2] (male), the Tmax was 0.67 ± 0.13 h. Further, the AUC(0-t) in data set [2] (male, read-out: AUC(0-t)) is 257000 ng·h/mL. Further, the “Shape of plasma concentration-time curve” value in data set [2] (setting [5]) is “significant bimodal phenomena; also recorded: clear bimodal phenomena”. The “AUC(0-t)” value in data set [2] is “significantly higher than that of the others”.
Take `COc1c(O)cc2oc(-c3ccc(O)cc3)cc(=O)c2c1O` [Hispidulin, hispidulin]: in data set [1] (spiked concentration 2 ng/mL), the “Measured, -80°C for 7 days” value is 1.85 ± 0.14 ng/mL; the “Measured, Autosampler for 12 h” value turned out to be 1.79 ± 0.08 ng/mL; the “Measured, Room temperature for 4 h” value was determined as 1.87 ± 0.12 ng/mL; the “Measured, Three freeze-thaw cycles” value worked out at 1.77 ± 0.14 ng/mL. Also, in data set [1] (spiked concentration 20 ng/mL), the “Measured, -80°C for 7 days” value is 19.90 ± 2.31 ng/mL; the “Measured, Autosampler for 12 h” value is 21.61 ± 2.09 ng/mL; the “Measured, Room temperature for 4 h” value was determined as 21.29 ± 2.88 ng/mL; the “Measured, Three freeze-thaw cycles” value amounted to 20.10 ± 2.62 ng/mL. In data set [1] (spiked concentration 320 ng/mL), the “Measured, -80°C for 7 days” value amounted to 280.72 ± 21.00 ng/mL; the “Measured, Autosampler for 12 h” value is on record as 304.61 ± 18.62 ng/mL; the “Measured, Room temperature for 4 h” value is 315.17 ± 13.17 ng/mL; the “Measured, Three freeze-thaw cycles” value is reported as 289.06 ± 17.23 ng/mL. Further, the concentration at 0.5 h in data set [2] (male, in vivo) worked out at 36 ng/mL. Besides, the Plasma levels entry in data set [2] (setting [5]) was “too weak to obtain comprehensive pharmacokinetic curves”.
For the molecule `O=c1cc(-c2ccccc2)oc2cc(O[C@@H]3O[C@H](CO)[C@@H](O)[C@H](O)[C@H]3O)c(O)c(O)c12` [Oroxin A, oroxin A], in data set [1] (spiked concentration 40 ng/mL), the “Measured, -80°C for 7 days” value amounted to 41.12 ± 0.77 ng/mL; the “Measured, Autosampler for 12 h” value is 39.49 ± 3.13 ng/mL; the “Measured, Room temperature for 4 h” value came to 38.81 ± 2.31 ng/mL; the “Measured, Three freeze-thaw cycles” value came out at 39.17 ± 2.11 ng/mL. In addition, in data set [1] (spiked concentration 400 ng/mL), the “Measured, -80°C for 7 days” value is given as 385.78 ± 15.57 ng/mL; the “Measured, Autosampler for 12 h” value was determined as 419.46 ± 28.69 ng/mL; the “Measured, Room temperature for 4 h” value was 388.37 ± 19.15 ng/mL; the “Measured, Three freeze-thaw cycles” value was found to be 395.82 ± 21.75 ng/mL. Moreover, in data set [1] (setting [6]), the “Measured, -80°C for 7 days” value amounted to 6200.94 ± 362.67 ng/mL; the “Measured, Autosampler for 12 h” value worked out at 6572.01 ± 389.34 ng/mL; the “Measured, Room temperature for 4 h” value is given as 6516.27 ± 414.24 ng/mL; the “Measured, Three freeze-thaw cycles” value came out at 6021.13 ± 378.88 ng/mL. Also, in data set [2] (male), the concentration at 0.5 h worked out at 1300 ng/mL, the AUC(0-inf) is 4060 ng·h/mL, the Cmax is 2890 ng/mL and the half-life is 3.42 ± 2.51 h. Besides, in data set [2] (male), the Tmax was 0.25 h. In addition, the AUC(0-t) in data set [2] (male, read-out: AUC(0-t)) is 3990 ng·h/mL.
On to `O=c1cc(-c2ccccc2)oc2cc(O)c(O)c(O)c12` [Baicalein, baicalein], for which, in data set [1] (spiked concentration 40 ng/mL), the “Measured, -80°C for 7 days” value stood at 38.12 ± 3.24 ng/mL; the “Measured, Autosampler for 12 h” value was 39.31 ± 4.16 ng/mL; the “Measured, Room temperature for 4 h” value was determined as 40.41 ± 3.19 ng/mL; the “Measured, Three freeze-thaw cycles” value stood at 38.12 ± 3.24 ng/mL. In data set [1] (spiked concentration 400 ng/mL), the “Measured, -80°C for 7 days” value was 409.67 ± 26.03 ng/mL; the “Measured, Autosampler for 12 h” value is on record as 393.06 ± 21.11 ng/mL; the “Measured, Room temperature for 4 h” value amounted to 389.14 ± 35.85 ng/mL; the “Measured, Three freeze-thaw cycles” value was 409.67 ± 26.03 ng/mL. In addition, in data set [1] (setting [6]), the “Measured, -80°C for 7 days” value worked out at 5967.02 ± 503.93 ng/mL; the “Measured, Autosampler for 12 h” value is 6241.15 ± 404.47 ng/mL; the “Measured, Room temperature for 4 h” value is given as 6247.34 ± 389.56 ng/mL; the “Measured, Three freeze-thaw cycles” value was 5967.02 ± 503.93 ng/mL. Also, in data set [2] (male), the concentration at 0.5 h amounted to 400 ng/mL, the AUC(0-inf) worked out at 4600 ng·h/mL, the Cmax was found to be 2930 ng/mL and the half-life was 2.99 ± 1.18 h. The Tmax in data set [2] (male) worked out at 0.06 ± 0.03 h. Besides, in data set [2] (male, read-out: AUC(0-t)), the AUC(0-t) stood at 4200 ng·h/mL.
On to `OCc1ccccc1O[C@@H]1O[C@H](CO)[C@@H](O)[C@H](O)[C@H]1O` [salicin], for which the time of peak concentration (Tmax) in data set [2] (male) was ~10 h.
